Assay results taken from the Kinase Knowledgebase extract (Sharma et al. 2016).

target: PIK3CA (human) (UniProt P42336); experiment: Assessment of PIK3CA Kinase Activity
Sequence (P42336 whole entry, looked up): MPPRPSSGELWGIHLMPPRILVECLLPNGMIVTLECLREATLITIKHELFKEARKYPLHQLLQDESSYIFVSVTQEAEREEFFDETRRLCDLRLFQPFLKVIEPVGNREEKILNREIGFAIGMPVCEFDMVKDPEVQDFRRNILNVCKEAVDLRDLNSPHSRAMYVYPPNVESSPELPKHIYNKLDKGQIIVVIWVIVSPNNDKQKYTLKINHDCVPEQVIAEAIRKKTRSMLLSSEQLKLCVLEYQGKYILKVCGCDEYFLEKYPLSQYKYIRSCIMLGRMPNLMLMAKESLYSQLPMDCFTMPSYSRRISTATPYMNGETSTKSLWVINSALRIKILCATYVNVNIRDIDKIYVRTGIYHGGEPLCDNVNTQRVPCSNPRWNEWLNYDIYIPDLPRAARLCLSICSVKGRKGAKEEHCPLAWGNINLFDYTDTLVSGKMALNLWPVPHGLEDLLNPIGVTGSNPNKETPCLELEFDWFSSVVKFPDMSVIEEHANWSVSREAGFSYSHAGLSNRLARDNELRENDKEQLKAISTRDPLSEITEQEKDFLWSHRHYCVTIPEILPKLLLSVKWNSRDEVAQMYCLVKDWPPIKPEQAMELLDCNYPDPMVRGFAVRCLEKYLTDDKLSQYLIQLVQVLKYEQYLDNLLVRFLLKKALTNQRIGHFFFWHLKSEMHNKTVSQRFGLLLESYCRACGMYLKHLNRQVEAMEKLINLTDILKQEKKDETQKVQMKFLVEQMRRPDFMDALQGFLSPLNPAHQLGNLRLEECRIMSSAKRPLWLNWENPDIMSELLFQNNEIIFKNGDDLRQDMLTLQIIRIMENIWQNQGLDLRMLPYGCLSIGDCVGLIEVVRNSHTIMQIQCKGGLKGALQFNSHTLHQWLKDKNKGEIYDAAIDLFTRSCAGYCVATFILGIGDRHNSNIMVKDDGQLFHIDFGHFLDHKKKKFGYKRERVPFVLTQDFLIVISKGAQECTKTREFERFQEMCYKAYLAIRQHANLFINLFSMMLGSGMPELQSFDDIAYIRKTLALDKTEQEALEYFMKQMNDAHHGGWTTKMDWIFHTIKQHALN

IC50 [nM]	Structure (SMILES)
113	CC(C)N1CCN(C(=O)c2ccc(NC(=O)Nc3ccc(-c4nc(N5CCOC[C@H]5C)cc(N5CCOC[C@H]5C)n4)cc3)cc2)CC1
2550	O=C(Nc1ccc(-c2nccc(N3CCOCC3)n2)cc1)OCCO
3070	O=C(Nc1ccc(-c2cc(N3CCOCC3)nc(-c3ccccc3)n2)cc1)NC1CC1
592	CNC(=O)Nc1ccc(-c2cc(N3CCOCC3)c3cnn(C4CCN(Cc5ccccc5)CC4)c3n2)cc1
202	O=CNc1c(O)nc(-c2ccc(NC(=O)Nc3ccc(C(=O)NCCN4CCCCC4)cc3)cc2)nc1N1CCOCC1
420	C[C@@H]1COCCN1c1cc(C2CCOCC2)nc(-c2ccc(NC(=O)Nc3ccc(N4CCN(C)CC4)cc3)cc2)n1
16	O=C(Nc1ccncc1)Nc1ccc(-c2cc(N3CCOCC3)nc(N3CCOCC3)n2)cc1
79	CN1CCN(c2ccc(NC(=O)Nc3ccc(-c4ccnc(N5CCOCC5)n4)cc3)cn2)CC1
76	CN(C)CCN(C)C(=O)c1ccc(NC(=O)Nc2ccc(-c3nc(O)c(NC=O)c(N4CCOCC4)n3)cc2)cc1
46	CN1CCN(c2ccc(NC(=O)Nc3ccc(-c4nccc(N5CCOCC5)n4)cc3)cn2)CC1
19	CN1CCN(c2ccc(NC(=O)Nc3ccc(-c4nccc(N5CCOCC5)n4)cc3)cc2)CC1
21	O=C(Nc1ccncc1)Nc1ccc(-c2nc(N3CCOCC3)cc(N3CCOCC3)n2)cc1
572	C[C@@H]1COCCN1c1cc(N2CCOC[C@H]2C)nc(-c2ccc(NC(=O)Nc3ccncc3)cc2)n1
31	CN(C)CCN(C)C(=O)c1ccc(NC(=O)Nc2ccc(-c3nc(O)c(N)c(N4CCOCC4)n3)cc2)cc1
9	O=C(Nc1ccncc1)Nc1ccc(-c2nc(N3CCOCC3)c3sccc3n2)cc1
42	O=C(Nc1ccncc1)Nc1ccc(-c2ncc(Cl)c(N3CCOCC3)n2)cc1
364	O=C(NCCF)Nc1ccc(-c2nc(N3CCOCC3)c3sccc3n2)cc1
312	CCNC(=O)Nc1ccc(-c2nc(N3CCOCC3)c3sccc3n2)cc1
383	C[C@@H]1COCCN1c1cc(C2CCOCC2)nc(-c2ccc(NC(=O)Nc3ccncc3)cc2)n1
2750	O=C(Nc1ccc(-c2nccc(N3CCOCC3)n2)cc1)NC1CC1
53	O=C(Nc1ccc(-c2ncc(-c3ccccc3)c(N3CCOCC3)n2)cc1)Nc1cccnc1
35	C=CCc1cnc(-c2ccc(NC(=O)Nc3cccnc3)cc2)nc1N1CCOCC1
77.5	C[C@@H]1COCCN1c1cc(N2CCOC[C@H]2C)nc(-c2ccc(NC(=O)Nc3ccc(C(=O)N4CCN(C)CC4)cc3)cc2)n1
93	CNC(=O)Nc1ccc(-c2nc(N3CCOCC3)c3sccc3n2)cc1
15	O=C(Nc1ccncc1)Nc1ccc(-c2nccc(N3CCOCC3)n2)cc1

IC50 [nM]	Structure (SMILES)
565	C[C@@H]1COCCN1c1cc(N2CCOC[C@H]2C)nc(-c2ccc(NC(=O)Nc3ccc(N4CCN(C)CC4)cc3)cc2)n1
155	O=C(Nc1ccc(-c2ncc([N+](=O)[O-])c(N3CCOCC3)n2)cc1)Nc1cccnc1
415	CCNC(=O)Nc1ccc(-c2nccc(N3CCOCC3)n2)cc1
80.5	C[C@@H]1COCCN1c1cc(C2CCOCC2)nc(-c2ccc(NC(=O)Nc3ccc(C(=O)N4CCN(C)CC4)cc3)cc2)n1
7770	CN1CCN(c2ccc(NC(=O)Nc3ccc(-c4cc(N5CCOCC5)nc(-c5ccccc5)n4)cc3)cc2)CC1
1600	COC(=O)Nc1ccc(-c2nc(N3CCOCC3)c3sccc3n2)cc1
22	CN(C)CCOc1ccc(NC(=O)Nc2ccc(-c3nccc(N4CCOCC4)n3)cc2)cc1
654	O=C(Nc1ccncc1)Nc1ccc(-c2cc3nccn3c(N3CCOCC3)n2)cc1
5080	O=C(Nc1ccc(-c2cc3nccn3c(N3CCOCC3)n2)cc1)NC1CC1
11	O=C(Nc1ccc(-c2nc(N3CCOCC3)c3sccc3n2)cc1)Nc1cccnc1
35	Cc1ccc2c(N3CCOCC3)nc(-c3ccc(NC(=O)Nc4ccncc4)cc3)nc2c1
636	O=C(Nc1ccc(-c2nc(N3CCOCC3)c3sccc3n2)cc1)NC1CC1
2860	O=C(Nc1ccc(-c2ccnc(N3CCOCC3)n2)cc1)OCCO
35	O=C(Nc1ccc(-c2nccc(N3CCOCC3)n2)cc1)Nc1ccc(N2CCOCC2)cc1
384	CNC(=O)Nc1ccc(-c2nccc(N3CCOCC3)n2)cc1
141	O=C(NCCO)Nc1ccc(-c2nc(N3CCOCC3)c3sccc3n2)cc1
146	CC(C)N1CCN(C(=O)c2ccc(NC(=O)Nc3ccc(-c4nc(C5CCOCC5)cc(N5CCOC[C@H]5C)n4)cc3)cc2)CC1
983	C[C@@H]1COCCN1c1cc(N2CCOC[C@H]2C)nc(-c2ccc(NC(=O)Nc3cccnc3)cc2)n1
2970	CNC(=O)Nc1ccc(-c2cc3nccn3c(N3CCOCC3)n2)cc1
694	C[C@@H]1COCCN1c1cc(C2CCOCC2)nc(-c2ccc(NC(=O)Nc3ccc(N4CCN(C)CC4)nc3)cc2)n1
112	O=C(Nc1ccc(-c2nccc(N3CCOCC3)n2)cc1)Nc1ccc(N2CCOCC2)nc1
7	O=C(Nc1ccccc1)Nc1ccc(-c2nc(N3CCOCC3)c3sccc3n2)cc1
684	C[C@@H]1COCCN1c1cc(C2CCOCC2)nc(-c2ccc(NC(=O)Nc3cccnc3)cc2)n1
394	CNC(=O)Nc1ccc(-c2ccnc(N3CCOCC3)n2)cc1
42	O=C(Nc1ccc(-c2ccnc(N3CCOCC3)n2)cc1)Nc1cccnc1
